Measured values: ChEMBL document CHEMBL1909046, “DrugMatrix in vitro pharmacology data”

Columns and labels:
[1] = target: T1, Estrogen receptor (Homo sapiens, UniProt P03372); settings: sf9; also: in other assays of this panel Not Active means under 50% inhibition at 10 µM
T1 sequence (P03372 whole entry): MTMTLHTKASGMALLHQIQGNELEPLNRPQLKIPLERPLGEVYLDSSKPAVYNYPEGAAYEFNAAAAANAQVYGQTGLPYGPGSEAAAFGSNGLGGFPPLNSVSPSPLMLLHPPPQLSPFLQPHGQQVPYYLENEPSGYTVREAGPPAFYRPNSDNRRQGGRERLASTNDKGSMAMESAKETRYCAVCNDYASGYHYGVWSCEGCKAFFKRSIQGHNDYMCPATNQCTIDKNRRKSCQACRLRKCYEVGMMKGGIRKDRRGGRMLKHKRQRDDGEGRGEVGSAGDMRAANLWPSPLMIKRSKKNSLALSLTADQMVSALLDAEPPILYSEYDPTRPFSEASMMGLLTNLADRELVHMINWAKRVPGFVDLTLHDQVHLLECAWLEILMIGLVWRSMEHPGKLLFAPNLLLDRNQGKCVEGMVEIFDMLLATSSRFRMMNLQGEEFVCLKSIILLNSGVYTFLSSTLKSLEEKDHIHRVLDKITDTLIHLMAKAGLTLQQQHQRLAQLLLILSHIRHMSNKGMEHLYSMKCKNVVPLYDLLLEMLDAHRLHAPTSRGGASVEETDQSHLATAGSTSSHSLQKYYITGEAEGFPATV

[2] = target: T2, Leukotriene C4 synthase (Cavia porcellus, UniProt A6XA80); format: tissue-based, Lung;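 also: enzyme inhibition assay of leukotriene C4 synthase, using LTA4 as the substrate; in other assays of this panel Not Active means under 50% inhibition at 10 µM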
T2 sequence (A6XA80 whole entry): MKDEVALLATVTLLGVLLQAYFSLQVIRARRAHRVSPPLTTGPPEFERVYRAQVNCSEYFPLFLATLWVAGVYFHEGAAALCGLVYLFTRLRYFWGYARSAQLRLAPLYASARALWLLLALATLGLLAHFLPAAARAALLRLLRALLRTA

[3] = target: T3, Alpha-1A adrenergic receptor (Rattus norvegicus, UniProt P43140); experiment: DRUGMATRIX: Alpha-1A adrenergic receptor radioligand binding (ligand: prazosin); format: cell membranes, Wistar, Submaxillary gland, Membrane; settings: Not Active = under 50% inhibition at 10 µM
T3 sequence (P43140 whole entry): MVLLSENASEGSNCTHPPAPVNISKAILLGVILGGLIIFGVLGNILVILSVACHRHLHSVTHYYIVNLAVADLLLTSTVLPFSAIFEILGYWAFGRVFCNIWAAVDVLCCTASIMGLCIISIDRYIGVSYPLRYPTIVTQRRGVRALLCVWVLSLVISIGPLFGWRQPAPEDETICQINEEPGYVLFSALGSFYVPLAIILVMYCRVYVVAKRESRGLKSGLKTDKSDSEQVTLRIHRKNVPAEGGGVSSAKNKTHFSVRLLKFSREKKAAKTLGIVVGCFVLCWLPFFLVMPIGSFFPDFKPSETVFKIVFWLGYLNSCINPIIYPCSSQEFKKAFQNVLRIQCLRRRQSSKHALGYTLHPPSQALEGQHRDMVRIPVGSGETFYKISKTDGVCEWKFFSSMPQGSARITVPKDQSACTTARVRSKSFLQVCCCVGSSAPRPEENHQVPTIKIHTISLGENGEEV

[4] = target: T4, Cytochrome P450 2A6 (Homo sapiens, UniProt P11509); settings: bti-tn-5b1-4; also: in other assays of this panel Not Active means under 50% inhibition at 10 µM
T4 sequence (P11509 whole entry): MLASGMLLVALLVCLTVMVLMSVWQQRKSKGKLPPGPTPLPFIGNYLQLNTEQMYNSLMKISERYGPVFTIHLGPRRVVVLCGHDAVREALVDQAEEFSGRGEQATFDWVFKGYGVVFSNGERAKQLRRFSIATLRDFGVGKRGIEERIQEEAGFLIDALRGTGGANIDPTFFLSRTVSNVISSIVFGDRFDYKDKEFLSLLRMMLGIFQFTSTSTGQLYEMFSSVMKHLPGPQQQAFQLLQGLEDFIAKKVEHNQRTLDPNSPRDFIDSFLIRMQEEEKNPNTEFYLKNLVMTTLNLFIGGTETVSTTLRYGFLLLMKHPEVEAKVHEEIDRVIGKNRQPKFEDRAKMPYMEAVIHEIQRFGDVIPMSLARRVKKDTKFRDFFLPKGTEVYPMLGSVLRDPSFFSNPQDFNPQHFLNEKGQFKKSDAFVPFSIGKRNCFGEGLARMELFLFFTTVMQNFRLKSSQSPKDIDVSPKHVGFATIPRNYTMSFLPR

CCOc1nc2cccc(C(=O)O)c2n1Cc1ccc(-c2ccccc2-c2nnn[nH]2)cc1
Not Active: IC50 [1] | IC50 [2] | IC50 [3] | IC50 [4] | Ki [4]

O=C(O)CCCc1cccs1
Not Active: IC50 [1] | IC50 [2] | IC50 [3] | IC50 [4] | Ki [4]

COc1ccccc1N
Not Active: IC50 [2] | IC50 [3] | IC50 [4] | Ki [4]

O=C(c1ccccc1F)N1CCC(Cc2ccccc2)CC1
Not Active: IC50 [1] | IC50 [2] | IC50 [3] | IC50 [4] | Ki [4]

Cc1c(O)cccc1C(=O)N[C@@H](CSc1ccccc1)[C@H](O)CN1C[C@H]2CCCC[C@H]2C[C@H]1C(=O)NC(C)(C)C
Not Active: IC50 [2] | IC50 [3] | IC50 [4] | Ki [4]

CC(O)COC[C@H]1O[C@@H]2O[C@H]3[C@H](O)[C@@H](O)[C@@H](O[C@H]4[C@H](O)[C@@H](O)[C@@H](O[C@H]5[C@H](O)[C@@H](O)[C@@H](O[C@H]6[C@H](O)[C@@H](O)[C@@H](O[C@H]7[C@H](O)[C@@H](O)[C@@H](O[C@H]8[C@H](O)[C@@H](O)[C@@H](O[C@H]1[C@H](O)[C@H]2O)O[C@@H]8COCC(C)O)O[C@@H]7COCC(C)O)O[C@@H]6COCC(C)O)O[C@@H]5COCC(C)O)O[C@@H]4COCC(C)O)O[C@@H]3COCC(C)O (stereo partly drawn) [2-HYDROXYPROPYL-BETA-CYCLODEXTRIN]
Not Active: IC50 [1] | IC50 [2] | IC50 [3] | IC50 [4] | Ki [4]

NC(=O)c1cccc(N)c1 [3-AMINOBENZAMIDE]
Not Active: IC50 [1] | IC50 [2] | IC50 [3] | IC50 [4] | Ki [4]

C[C@H]1O[C@H](O[C@H]2[C@H](O)[C@@H](O)[C@@H](O[C@H]3[C@H](O)[C@@H](O)C(O)O[C@@H]3CO)O[C@@H]2CO)[C@H](O)[C@@H](O)[C@@H]1N[C@H]1C=C(CO)[C@@H](O)[C@H](O)[C@H]1O (some centres not stated) [ACARBOSE]
Not Active: IC50 [2] | IC50 [3] | IC50 [4] | Ki [4]

CC[C@H]1[C@@H]2C[C@H]3[C@@H]4N(C)c5ccccc5[C@]45C[C@@H]([C@@H]2[C@H]5O)N3[C@@H]1O [AJMALINE]
Not Active: IC50 [1] | IC50 [2] | IC50 [3] | IC50 [4] | Ki [4]

NC12CC3CC(CC(C3)C1)C2 [AMANTADINE]
Not Active: IC50 [2] | IC50 [3]

CC(C)c1c(C(=O)Nc2ccccc2)c(-c2ccccc2)c(-c2ccc(F)cc2)n1CC[C@@H](O)C[C@@H](O)CC(=O)O [ATORVASTATIN]
Not Active: IC50 [2] | IC50 [3] | IC50 [4] | Ki [4]

C[C@H]1[C@H](NC(=O)/C(=N\OC(C)(C)C(=O)O)c2csc(N)n2)C(=O)N1S(=O)(=O)O [AZTREONAM]
Not Active: IC50 [2] | IC50 [3] | IC50 [4] | Ki [4]

COc1cc(OC)c(C(=O)CCCN2CCCC2)c(OC)c1 [BUFLOMEDIL]
Not Active: IC50 [2] | IC50 [3] | IC50 [4] | Ki [4]

Cn1c(=O)c2c(ncn2C)n(C)c1=O [CAFFEINE]
Not Active: IC50 [2] | IC50 [3] | IC50 [4] | Ki [4]

CO/N=C(\C(=O)N[C@@H]1C(=O)N2C(C(=O)O)=C(COC(C)=O)CS[C@H]12)c1csc(N)n1 [CEFOTAXIME]
Not Active: IC50 [2] | IC50 [3] | IC50 [4] | Ki [4]

Cc1cc(O)cc(C)c1Cl [CHLOROXYLENOL]
Not Active: IC50 [2] | IC50 [3] | IC50 [4] | Ki [4]

NS(=O)(=O)c1cc(C2(O)NC(=O)c3ccccc32)ccc1Cl (configuration not stated) [CHLORTHALIDONE]
Not Active: IC50 [2] | IC50 [3] | IC50 [4] | Ki [4]

COc1cccc2c1C(=O)c1c(O)c3c(c(O)c1C2=O)C[C@@](O)(C(C)=O)C[C@@H]3O[C@H]1C[C@H](N)[C@H](O)[C@H](C)O1 [DAUNORUBICIN]
Not Active: IC50 [2] | IC50 [3] | IC50 [4] | Ki [4]

C[S+](C)[O-] [DIMETHYL SULFOXIDE]
Not Active: IC50 [2] | IC50 [3] | IC50 [4] | Ki [4]

C[C@]12CC[C@@H]3c4ccc(O)cc4CC[C@H]3[C@@H]1C[C@@H](O)[C@@H]2O [ESTRIOL]
Not Active: IC50 [2] | IC50 [3] | IC50 [4] | Ki [4]

C#C[C@]1(O)CC[C@H]2[C@@H]3CCC4=CC(=O)CC[C@]4(C)[C@H]3CC[C@@]21C [ETHISTERONE]
Not Active: IC50 [2] | IC50 [3] | IC50 [4] | Ki [4]

CC(O)(P(=O)(O)O)P(=O)(O)O [ETIDRONIC ACID]
Not Active: IC50 [2] | IC50 [3] | IC50 [4] | Ki [4]

CC(=O)OCC(=O)[C@@]12OC(C)(C)O[C@@H]1C[C@H]1[C@@H]3C[C@H](F)C4=CC(=O)C=C[C@]4(C)[C@@]3(F)[C@@H](O)C[C@@]12C [FLUOCINONIDE]
Not Active: IC50 [1] | IC50 [2] | IC50 [3]

O=C(O)P(=O)(O)O [FOSCARNET]
Not Active: IC50 [2] | IC50 [3] | IC50 [4] | Ki [4]

O=c1c(-c2ccc(O)cc2)coc2cc(O)cc(O)c12 [GENISTEIN]
Not Active: IC50 [2] | IC50 [3] | IC50 [4] | Ki [4]

N[C@@H](Cn1ccc(=O)c(O)c1)C(=O)O [L-MIMOSINE]
Not Active: IC50 [1] | IC50 [2] | IC50 [3]

C[N+](C)(C)C[C@H](O)CC(=O)[O-] [LEVOCARNITINE]
Not Active: IC50 [2] | IC50 [3] | IC50 [4] | Ki [4]

C[C@H]1COc2c(N3CCN(C)CC3)c(F)cc3c(=O)c(C(=O)O)cn1c23.C[C@H]1COc2c(N3CCN(C)CC3)c(F)cc3c(=O)c(C(=O)O)cn1c23.O [LEVOFLOXACIN]
Not Active: IC50 [2] | IC50 [3] | IC50 [4] | Ki [4]

CN(C)C(=N)NC(=N)N [METFORMIN]
Not Active: IC50 [2] | IC50 [3] | IC50 [4] | Ki [4]

C[C@@H]1C/C=C/C=C/C=C/C=C/[C@H](O[C@@H]2O[C@H](C)[C@@H](O)[C@H](N)[C@@H]2O)C[C@@H]2O[C@](O)(C[C@@H](O)C[C@H]3O[C@@H]3/C=C/C(=O)O1)C[C@H](O)[C@H]2C(=O)O [NATAMYCIN]
Not Active: IC50 [1] | IC50 [2] | IC50 [3]

CS(=O)(=O)Nc1ccc([N+](=O)[O-])cc1Oc1ccccc1 [NIMESULIDE]
Not Active: IC50 [2] | IC50 [3] | IC50 [4] | Ki [4]

COc1ccc2c(c1OC)C(=O)O[C@@H]2[C@H]1c2c(cc3c(c2OC)OCO3)CCN1C [NOSCAPINE]
Not Active: IC50 [2] | IC50 [3] | IC50 [4] | Ki [4]

NC(=O)N1c2ccccc2CC(=O)c2ccccc21 [OXCARBAZEPINE]
Not Active: IC50 [2] | IC50 [3] | IC50 [4] | Ki [4]

CCN(CC)CCNC(=O)c1ccc(N)cc1 [PROCAINAMIDE]
Not Active: IC50 [2] | IC50 [3] | IC50 [4] | Ki [4]
